Measurements reported in patent US20250099548A1, “PHARMACEUTICAL COMPOSITION FOR PREVENTING OR TREATING DEGENERATIVE BRAIN DISEASES, CONTAINING GLUCAGON-LIKE PEPTIDE-1 AND INTERLEUKIN-1 RECEPTOR ANTAGONIST” (GI INNOVATION, INC., priority 2022, published 2025).

Experiments:
[1] = target: T1, IL-1Ra (interleukin-1 receptor alpha) (Homo sapiens, UniProt P14778); assay: Binding ability of GI210B1 measured with Octet RED 384 (AR2G biosensor); conditions: IL-1Ra 1 μg/ml coated on biosensor; GI210B1 15.6 nM to 1,000 nM
T1 construct: purchased R&D systems
T1 sequence (P14778 18-569): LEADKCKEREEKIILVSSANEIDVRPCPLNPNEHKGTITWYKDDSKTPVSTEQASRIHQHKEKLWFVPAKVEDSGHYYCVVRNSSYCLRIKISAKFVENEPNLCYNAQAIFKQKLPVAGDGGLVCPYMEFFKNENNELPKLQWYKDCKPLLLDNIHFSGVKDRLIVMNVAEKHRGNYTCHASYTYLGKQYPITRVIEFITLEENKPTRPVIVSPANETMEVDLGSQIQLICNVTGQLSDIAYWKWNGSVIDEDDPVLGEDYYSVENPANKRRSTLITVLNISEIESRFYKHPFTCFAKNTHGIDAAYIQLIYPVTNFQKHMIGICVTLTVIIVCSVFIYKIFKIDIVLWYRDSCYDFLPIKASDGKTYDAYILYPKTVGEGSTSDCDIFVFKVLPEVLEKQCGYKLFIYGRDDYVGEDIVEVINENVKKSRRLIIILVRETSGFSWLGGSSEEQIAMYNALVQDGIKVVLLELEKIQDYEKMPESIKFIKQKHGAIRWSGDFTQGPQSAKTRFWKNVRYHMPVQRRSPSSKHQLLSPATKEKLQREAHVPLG
Description: The binding ability of GI210B1, which was obtained through the method of Preparation Example 1 above, to IL-1Ra ([…]) was measured. At that time, the binding ability to IL-1Ra was confirmed using Octet RED 384 (ForteBio). The AR2G (amine reactive 2nd generation) biosensor was used by immersion in 1× kinetic buffer for 10 minutes. IL-1Ra (R&D systems) was prepared at a concentration of 1 μg/ml and coated on the biosensor, and the binding ability was confirmed at each concentration by serially diluting GI210B1 from 15.6 nM to 1,000 nM.

Tg-APP/PS1 mice [2] = assay: Water maze test; format: in vivo, mouse; conditions: Example 1
Description: (§1) The test substance was prepared by diluting GI210B1 obtained in Preparation Example 1 in saline, and it was intraperitoneally administered to 6.5-month-old Tg-APP/PS1 mice at a concentration of 1.2 mg/kg a total of 4 times for 2 weeks (FIG. 10).
(§2) In the Tg-APP/PS1 mice intraperitoneally administered with GI210B1 at 6.5 months of age in Example 1.1 above, behavioral characteristics of cognitive function were evaluated at 7.5 to 8.0 months of age. In order to evaluate the behavioral characteristics of cognitive function, a novel object recognition test (NOR test), a passive avoidance test, and a water maze test were performed. At that time, the three experiments for behavioral evaluation were performed according to a method known in the art.
The water maze test is a cognitive behavior evaluation experiment conducted to measure spatial perception learning ability and memory dependent on the hippocampus area of the brain. […]
In addition, a hidden platform test was conducted on the 6th day. The hidden platform of the water maze was removed, and then the mouse was placed in the water maze and the location the mouse stayed for 60 seconds was recorded. At that time, the time and location that the mouse stayed in the four quadrants of the water maze for 60 seconds in the absence of a hidden platform were recorded. […]

Tg-APP/PS1 mice [3] = assay: Passive avoidance test; format: in vivo, mouse; conditions: Example 1; 72 and 120 hours after the shock; 1.2 mg/kg intraperitoneal, 4 times for 2 weeks
Description: as §1, §2
The passive avoidance test is a test to confirm fear/anxiety memory by associating spatial contextual cues and shock in mice for long periods of 24 hours, 72 hours, and 120 hours. The passive avoidance test is a cognitive behavior evaluation experiment conducted to confirm memories associated with spatial and contextual cues, specifically fear and anxiety. […]
Specifically, mice have a tendency to prefer a dark place. […] The mice prepared in Example 1.1 were learned in the same manner as above, and the time for each step was measured.

Tg-APP/PS1 mice [4] = assay: DCX immunochemical staining of hippocampal DG region; format: in vivo, mouse; conditions: Example 1; GI210B1 1.2 mg/kg intraperitoneal, 4 times for 2 weeks
From the text: DCX (doublecortin) is continuously expressed during the 2-3 weeks during which immature neurons mature, and is expressed in […]. For this reason, DCX is used as a marker of neurogenesis, indicating the degree of neuronal differentiation and after the metaphase of newly generated neurons.
In order to confirm the effect of GI210B1 on the decreased neurogenesis in the DG (dentate gyrus) region of the hippocampus of Tg mice, the Tg-APP/PS1 mice administered with GI210B1 (Tg+GI210B1), the wild type mice (WT) as a normal group, and the Tg-APP/PS1 mice (Tg or Tg+Veh) as a control group were sacrificed, and then the brain tissue was extracted, and the DG region of the hippocampus was stained with DCX.
In the same manner as in Example 1.4.2 above, the mice from each group were sacrificed, and then the brain tissue was extracted, and the DG region of the hippocampus was stained with DCX.

Q: For “GI210B1: fusion protein dimer comprising GLP-1 (SEQ ID NO: 2), IgG4 Fc domain and IL-1Ra; SEQ ID NO: 10”, which “Ka(Association rate, 1/Ms)” value [1] is on record?
A: 22000 M⁻¹ s⁻¹

Q: What about the “Kd(dissociation rate, 1/s)” value [1] of the same substance?
A: 0.0093 s⁻¹

Q: What about the “time in target quadrant, hidden platform test” value (Tg-APP/PS1 mice [2]; 6th day, platform removed, 60 seconds) of the same substance?
A: recognized for a longer time compared to the control group (Tg+Veh)

Q: What about the “time taken for the mouse to learn and find the location of the hidden platform (spatial perception training)” value (Tg-APP/PS1 mice [2]; training twice a day for 5 days, 1.2 mg/kg intraperitoneal, 4 times for 2 weeks) of the same substance?
A: somewhat slower than that of the normal group, but faster than that of the control group (Tg+Veh)

Q: And the “moving to the dark chamber after foot shock” value (Tg-APP/PS1 mice [3])?
A: had a tendency not to move to the dark chamber

Q: And the “number of DCX positive cells in the DG region of the hippocampus” value (Tg-APP/PS1 mice [4])?
A: increased compared to the control group (Tg), and was recovered to a level similar to that of the normal group (WT)
